# Legend:
# Type in all cases: physicochemical
# [1] = Drug stability test (Test Example 4, FIG. 3): loxoprofen/lactic acid with additives, with or without NMP; details: for stability of LOX (in words): NMP added to LOX
# Protocol: By a similar procedure to Test Example 3 except that 1 g of an additive (aspartic acid, isostearic acid, disodium edetate, a carboxyvinyl polymer or polyvinylpyrrolidone) was added to a mixed solution of 0.1 g of loxoprofen and 5 g of lactic acid, the mass of loxoprofen sodium being present in each solvent system was measured.
# In addition, by a similar procedure to Test Example 3 except that 1 g of N-methyl-2-pyrrolidone, and 1 g of an additive (aspartic acid, isostearic acid, disodium edetate, the carboxyvinyl polymer or polyvinylpyrrolidone) were further mixed, the mass of loxoprofen sodium being present in each solvent system was measured. The results are shown in FIG. 3 in terms of the ratio of each measurement with respect to the initial value.
# [2] = Drug stability test (Test Example 3): loxoprofen sodium in solvent systems, autoclaving at 120° C.; details: for Loxoprofen sodium content (%) (vs. initial value): autoclaving 120° C.
# Protocol: To each solvent was added 0.1 g of loxoprofen sodium, and the mixture was stirred at 25° C. overnight. The stirred mixture was filtrated to obtain a filtrate for use as a sample solution. This sample solution was subjected to an autoclaving treatment at 120° C., and the mass of loxoprofen sodium being present in each solvent system was measured at time 0 (initial value), 2 hrs later, 4 hrs later, and 6 hrs later. The results are shown in FIG. 2 and Table 3 in terms of the ratio of each measurement with respect to the initial value. The measurement procedure was similar to Test Example 2.
# [3] = Drug solubility test (Test Example 1): amount of LOX dissolved in 1 g of additive, visual observation
# Protocol: The amount of dissolution of loxoprofen sodium (LOX) with respect to 1 g of each additive was determined by visual observation.
# [4] = Drug stability test (Test Example 2): loxoprofen sodium in solvent systems left at 60° C., HPLC; details: for Loxoprofen sodium content (%) (vs. initial value): 60° C.
# Protocol: To each solvent was added 0.1 g of loxoprofen sodium, and the mixture was stirred at 25° C. overnight. The stirred mixture was filtrated to obtain a filtrate for use as a sample solution, and this sample solution was left to stand at 60° C. Thereafter, the mass of loxoprofen sodium being present in each solvent system was measured with high performance liquid chromatography (HPLC) 0 months later (initial value), 0.5 months later, and 1.0 month later. The results are shown in FIG. 1 and Table 2 in terms of the ratio of each measurement with respect to the initial value.
# [5] = Drug stability test (Test Example 5, FIG. 4): loxoprofen sodium or felbinac in lactic acid with NMP; details: 0.1 g drug in 5 g lactic acid with 1 g or 10 g NMP; autoclaving 120° C.
# Protocol: By a similar procedure to Test Example 3 except that either 1 g or 10 g of N-methyl-2-pyrrolidone was further mixed with a mixed solution of 0.1 g of loxoprofen sodium or felbinac and 5 g of lactic acid, the mass of the drug being present in each solvent system was measured.
# [6] = Drug stability test (Test Example 6, FIG. 5): diclofenac sodium in lactic acid or glycerin with NMP; details: autoclaving 120° C.
# Protocol: By a similar procedure to Test Example 5 except that a mixed solution of 0.1 g of diclofenac sodium and 5 g of lactic acid or glycerin was used, the mass of the drug being present in each solvent system was measured.
# [7] = Drug stability test (Test Example 7, FIG. 6): tulobuterol in acetic acid with NMP; details: 0.1 g drug in 5 g acetic acid with 1 g or 10 g NMP; autoclaving 120° C.
# Protocol: By a similar procedure to Test Example 5 except that a mixed solution of 0.1 g of tulobuterol and 5 g of acetic acid was used, the mass of the drug being present in each solvent system was measured.
structure (smiles),measurement,setting,value
"CC(C(=O)O)c1ccc(CC2CCCC2=O)cc1 (centres unmarked) [LOX, loxoprofen sodium]",stability of LOX (in words),[1]; lactic acid and adipic acid,favorable stability
same,stability of LOX (in words),[1]; lactic acid and benzoic acid,favorable stability
same,content of LOX versus control group without the additive (FIG. 3),"[1]; lactic acid 5 g + 1 g additive having a carboxylic acid group (aspartic acid, isostearic acid, disodium edetate, carboxyvinyl polymer), irrespective of the presence of NMP, 120° C.",almost a similar level to the LOX content in the control group
same,content of LOX versus control group (FIG. 3),"[1]; lactic acid 5 g + 1 g polyvinylpyrrolidone, irrespective of the presence of NMP, 120° C.",increased to a level higher than the content of LOX in the control group
same,Loxoprofen sodium content (%) (vs. initial value),"[2]; solvent system Lactic acid 5 g + NMP0.1 g, 2 hrs",96.0%
same,Loxoprofen sodium content (%) (vs. initial value),"[2]; solvent system Lactic acid 5 g + NMP0.1 g, 4 hrs",90.7%
same,Loxoprofen sodium content (%) (vs. initial value),"[2]; solvent system Lactic acid 5 g + NMP0.1 g, 6 hrs",87.4%
same,Loxoprofen sodium content (%) (vs. initial value),"[2]; solvent system Lactic acid 5 g + NMP1.0 g, 2 hrs",98.0%
same,Loxoprofen sodium content (%) (vs. initial value),"[2]; solvent system Lactic acid 5 g + NMP1.0 g, 4 hrs",94.2%
same,Loxoprofen sodium content (%) (vs. initial value),"[2]; solvent system Lactic acid 5 g + NMP1.0 g, 6 hrs",91.9%
same,Loxoprofen sodium content (%) (vs. initial value),"[2]; solvent system Lactic acid 5 g + NMP10.0 g, 2 hrs",99.4%
same,Loxoprofen sodium content (%) (vs. initial value),"[2]; solvent system Lactic acid 5 g + NMP10.0 g, 4 hrs",99.8%
same,Loxoprofen sodium content (%) (vs. initial value),"[2]; solvent system Lactic acid 5 g + NMP10.0 g, 6 hrs",99.6%
same,Loxoprofen sodium content (%) (vs. initial value),"[2]; solvent system Lactic acid 5 g, 2 hrs",94.8%
same,Loxoprofen sodium content (%) (vs. initial value),"[2]; solvent system Lactic acid 5 g, 4 hrs",90.3%
same,Loxoprofen sodium content (%) (vs. initial value),"[2]; solvent system Lactic acid 5 g, 6 hrs",86.8%
same,time dependent lowering of the content of loxoprofen sodium (in words),"[2]; solvent system including lactic acid and N-methyl-2-pyrrolidone (Tables 2 to 3, FIGS. 1 to 2)",markedly suppressed
same,amount of dissolution of loxoprofen sodium (in words),[3]; lactic acid and N-methyl-2-pyrrolidone used in combination,markedly great
same,amount of dissolution of loxoprofen sodium (in words),"[3]; lactic acid or N-methyl-2-pyrrolidone used alone, or other composition",significantly small
same,Amount of dissolved LOX,"[3]; per 1 g of additive: 10% Citric anhydride + NMP, mixing ratio 1:10",0.1 g
same,Amount of dissolved LOX,"[3]; per 1 g of additive: 20% Citric anhydride + NMP, mixing ratio 1:5",0.1 g
same,Amount of dissolved LOX,[3]; per 1 g of additive: 89% Phosphoric acid,0.25 g
same,Amount of dissolved LOX,"[3]; per 1 g of additive: Behenic acid + NMP, mixing ratio 1:1",0 g
same,Amount of dissolved LOX,"[3]; per 1 g of additive: Cetyl lactate + NMP, mixing ratio 1:4",0 g
same,Amount of dissolved LOX,[3]; per 1 g of additive: Crotamiton,0 g
same,Amount of dissolved LOX,"[3]; per 1 g of additive: Isostearic acid + NMP, mixing ratio 1:1",0 g
same,Amount of dissolved LOX,"[3]; per 1 g of additive: L-menthol + NMP, mixing ratio 1:1",0 g
same,Amount of dissolved LOX,[3]; per 1 g of additive: Lactic acid,0.25 g
same,Amount of dissolved LOX,"[3]; per 1 g of additive: Lactic acid + NMP, mixing ratio 1:2",1.5 g
same,Amount of dissolved LOX,"[3]; per 1 g of additive: Malic acid + NMP, mixing ratio 1:4",0 g
same,Amount of dissolved LOX,"[3]; per 1 g of additive: Myristic acid + NMP, mixing ratio 1:10",0 g
same,Amount of dissolved LOX,[3]; per 1 g of additive: NMP,0 g
same,Amount of dissolved LOX,[3]; per 1 g of additive: Oleyl alcohol,0 g
same,Amount of dissolved LOX,[3]; per 1 g of additive: Peppermint oil,0 g
same,Amount of dissolved LOX,"[3]; per 1 g of additive: Phosphoric acid (89%) + NMP, mixing ratio 1:2",0 g
same,Amount of dissolved LOX,[3]; per 1 g of additive: Polyethylene glycol 400,0.25 g
same,Amount of dissolved LOX,"[3]; per 1 g of additive: Stearic acid + NMP, mixing ratio 1:1",0 g
same,Amount of dissolved LOX,"[3]; per 1 g of additive: Tartaric acid + NMP, mixing ratio 1:2",0 g
same,Amount of dissolved LOX,[3]; per 1 g of additive: Triacetin,0 g
same,Loxoprofen sodium content (%) (vs. initial value),"[4]; solvent system Conc. glycerin 5 g, 0.5 months later",87.2%
same,Loxoprofen sodium content (%) (vs. initial value),"[4]; solvent system Conc. glycerin 5 g, 1.0 month later",82.4%
same,Loxoprofen sodium content (%) (vs. initial value),"[4]; solvent system Lactic acid 5 g + NMP0.1 g, 0.5 months later",88.2%
same,Loxoprofen sodium content (%) (vs. initial value),"[4]; solvent system Lactic acid 5 g + NMP0.1 g, 1.0 month later",82.7%
same,Loxoprofen sodium content (%) (vs. initial value),"[4]; solvent system Lactic acid 5 g + NMP1.0 g, 0.5 months later",91.3%
same,Loxoprofen sodium content (%) (vs. initial value),"[4]; solvent system Lactic acid 5 g + NMP1.0 g, 1.0 month later",85.8%
same,Loxoprofen sodium content (%) (vs. initial value),"[4]; solvent system Lactic acid 5 g + NMP10.0 g, 0.5 months later",99.8%
same,Loxoprofen sodium content (%) (vs. initial value),"[4]; solvent system Lactic acid 5 g + NMP10.0 g, 1.0 month later",99.4%
same,Loxoprofen sodium content (%) (vs. initial value),"[4]; solvent system Lactic acid 5 g, 0.5 months later",83.1%
same,Loxoprofen sodium content (%) (vs. initial value),"[4]; solvent system Lactic acid 5 g, 1.0 month later",79.9%
same,Loxoprofen sodium content (%) (vs. initial value),"[4]; solvent system Peppermint oil 5 g, 0.5 months later",83.2%
same,Loxoprofen sodium content (%) (vs. initial value),"[4]; solvent system Peppermint oil 5 g, 1.0 month later",77.7%
same,time dependent lowering of the content of loxoprofen sodium (in words),"[4]; solvent system of conc. glycerin, “polysorbate 80”, mentha oil or lactic acid",greatly exhibited
same,Loxoprofen sodium content (%) (vs. initial value),"[4]; solvent system “Polysorbate 80 g” 5 g, 0.5 months later",83.5%
same,Loxoprofen sodium content (%) (vs. initial value),"[4]; solvent system “Polysorbate 80 g” 5 g, 1.0 month later",69.1%
same,"stability of the drug (FIG. 4, in words)",[5],significantly improved
O=C(O)Cc1ccccc1Nc1c(Cl)cccc1Cl [diclofenac sodium],"reduction of stability caused by blending glycerin, effect of adding NMP (FIG. 5)",[6]; 0.1 g drug in 5 g glycerin with 1 g or 10 g NMP,compensated
same,"reduction of stability caused by blending lactic acid, effect of adding NMP (FIG. 5)",[6]; 0.1 g drug in 5 g lactic acid with 1 g or 10 g NMP,greatly compensated
O=C(O)Cc1ccc(-c2ccccc2)cc1 [felbinac],"stability of the drug (FIG. 4, in words)",[5],significantly improved
CC(C)(C)NCC(O)c1ccccc1Cl (centres unmarked) [tulobuterol],"stability of the drug (FIG. 6, in words)",[7],greatly improves
